In PubChem BioAssay AID1745844 (Carcinogenic Potency Database (CPDB), 2022) one finds TD50 and carcinogen call data, which are given here for five compounds.

Each structure is given as a SMILES string. Activity calls are given as the source filed them. How the calls were made is not given here.

For the data set, the system named is rodent lifetime carcinogenesis bioassay, tumor incidence TD50. As to the kind of experiment: chronic cancer bioassays in animals – CPDB, compiled studies (AID 1745844).

Consider `NC(=O)C(=Cc1ccc([N+](=O)[O-])o1)c1ccco1`, for which the TD50 (as a rule, the 50% point of the dose-response relation for the toxic effect studied) reads like this: (hamster, strain Syrian Golden, females, in feed, site: esophagus, lesion: papilloma, dosed 94 weeks, study length 94 weeks) 2340 mg/kg/day; (hamster, strain Syrian Golden, females, in feed, site: forestomach, lesion: several types, types named in the paper, dosed 94 weeks, study length 94 weeks) 59.1 mg/kg/day; (hamster, strain Syrian Golden, females, in feed, site: forestomach, lesion: squamous-cell carcinoma, dosed 94 weeks, study length 94 weeks) 2340 mg/kg/day; (hamster, strain Syrian Golden, males, in feed, site: esophagus, lesion: several types, types named in the paper, dosed 94 weeks, study length 94 weeks) 328 mg/kg/day; (hamster, strain Syrian Golden, males, in feed, site: esophagus, lesion: squamous-cell carcinoma, dosed 94 weeks, study length 94 weeks) 2180 mg/kg/day; (hamster, strain Syrian Golden, males, in feed, site: forestomach, lesion: several types, types named in the paper, dosed 94 weeks, study length 94 weeks) 30.5 mg/kg/day. Moreover, the TD50 by setting is: (hamster, strain Syrian Golden, males, in feed, site: forestomach, lesion: squamous-cell carcinoma, dosed 94 weeks, study length 94 weeks) 164 mg/kg/day; (mouse, strain CDF1, females, in feed, site: forestomach, lesion: papilloma, dosed 78 weeks, study length 104 weeks) 714 mg/kg/day; (mouse, strain CDF1, females, in feed, site: forestomach, lesion: squamous-cell carcinoma, dosed 78 weeks, study length 104 weeks) 2540 mg/kg/day; (mouse, strain CDF1, females, in feed, site: lung, lesion: one or several types, types not named, dosed 78 weeks, study length 104 weeks) 16400 mg/kg/day; (mouse, strain CDF1, males, in feed, site: forestomach, lesion: papilloma, dosed 78 weeks, study length 104 weeks) 753 mg/kg/day; (mouse, strain CDF1, males, in feed, site: forestomach, lesion: squamous-cell carcinoma, dosed 78 weeks, study length 104 weeks) 928 mg/kg/day. Besides, the TD50 by setting is: (mouse, strain CDF1, males, in feed, site: lung, lesion: one or several types, types not named, dosed 78 weeks, study length 104 weeks) 9270 mg/kg/day; (mouse, strain DDY, males, in feed, site: any site (literature study), lesion: several types, types named in the paper, dosed 44 weeks, study length 80 weeks) 60.8 mg/kg/day; (mouse, strain DDY, males, in feed, site: forestomach, lesion: several types, types named in the paper, dosed 44 weeks, study length 80 weeks) 60.8 mg/kg/day; (mouse, strain DDY, males, in feed, site: forestomach, lesion: squamous-cell carcinoma, dosed 44 weeks, study length 80 weeks) 72.9 mg/kg/day; (mouse, strain DDY, males, in feed, site: lung, lesion: adenoma, dosed 44 weeks, study length 80 weeks) 299 mg/kg/day; (mouse, strain ICR/Jcl, females, in feed, site: all sites, lesion: leukemia, dosed 62 weeks, study length 62 weeks) 1800 mg/kg/day. Moreover, the TD50 was 95 mg/kg/day (mouse, strain ICR/Jcl, females, in feed, site: forestomach, lesion: several types, types named in the paper, dosed 62 weeks, study length 62 weeks); 225 mg/kg/day (mouse, strain ICR/Jcl, females, in feed, site: forestomach, lesion: squamous-cell carcinoma, dosed 62 weeks, study length 62 weeks); 7070 mg/kg/day (inactive) (mouse, strain ICR/Jcl, females, in feed, site: liver, lesion: hepatocellular tumor, dosed 104 weeks, study length 104 weeks); 90.3 mg/kg/day (mouse, strain ICR/Jcl, males, in feed, site: forestomach, lesion: several types, types named in the paper, dosed 62 weeks, study length 62 weeks); 208 mg/kg/day (mouse, strain ICR/Jcl, males, in feed, site: forestomach, lesion: squamous-cell carcinoma, dosed 62 weeks, study length 62 weeks); 26.4 mg/kg/day (rat, strain Sprague-Dawley, females, in feed, site: mammary gland, lesion: adenocarcinoma, dosed 46 weeks, study length 66 weeks). In addition, the TD50 by setting is: (rat, strain Sprague-Dawley, females, in feed, site: mammary gland, lesion: several types, types named in the paper, dosed 46 weeks, study length 66 weeks) 11.4 mg/kg/day; (rat, strain Wistar, females, in feed, site: forestomach, lesion: papilloma, dosed 78 weeks, study length 104 weeks) 424 mg/kg/day; (rat, strain Wistar, females, in feed, site: liver, lesion: hemangioendothelial sarcoma, dosed 78 weeks, study length 104 weeks) 2000 mg/kg/day; (rat, strain Wistar, females, in feed, site: mammary gland, lesion: several types, types named in the paper, dosed 78 weeks, study length 104 weeks) 74.7 mg/kg/day; (rat, strain Wistar, males, in feed, site: forestomach, lesion: papilloma, dosed 78 weeks, study length 104 weeks) 409 mg/kg/day; (rat, strain Wistar, males, in feed, site: liver, lesion: hemangioendothelial sarcoma, dosed 78 weeks, study length 104 weeks) 1600 mg/kg/day. For the same compound, for the setting “rat, strain Wistar, males, in feed, site: mammary gland, lesion: several types, types named in the paper, dosed 78 weeks, study length 104 weeks”, the TD50 was 1200 mg/kg/day. Further, for the setting “mouse, strain ICR/Jcl, males, in feed, site: liver, lesion: hepatocellular tumor, dosed 104 weeks, study length 104 weeks”, the carcinogen call is “negative (inactive)”.
In the case of `O=[N+]([O-])c1ccc2ccc3cccc4ccc1c2c34`, the TD50 (rat, strain Fischer 344/Jcl, females, by gavage, site: all sites, lesion: mononuclear-cell leukemia, dosed 55 weeks, study length 104 weeks) is 4.33 mg/kg/day; the TD50 (rat, strain Fischer 344/Jcl, females, by gavage, site: clitoral gland, lesion: adenocarcinoma, dosed 55 weeks, study length 104 weeks) was determined as 157 mg/kg/day; the TD50 (rat, strain Fischer 344/Jcl, females, by gavage, site: clitoral gland, lesion: several types, types named in the paper, dosed 55 weeks, study length 104 weeks) is 6.16 mg/kg/day; the TD50 (rat, strain Fischer 344/Jcl, females, by gavage, site: clitoral gland, lesion: squamous-cell carcinoma, dosed 55 weeks, study length 104 weeks) was 6.08 mg/kg/day; the TD50 (rat, strain Fischer 344/Jcl, females, by gavage, site: mammary gland, lesion: adenocarcinoma, dosed 55 weeks, study length 104 weeks) is 4.82 mg/kg/day; the TD50 (rat, strain Fischer 344/Jcl, females, by gavage, site: mammary gland, lesion: adenoma, dosed 55 weeks, study length 104 weeks) turned out to be 51.4 mg/kg/day. The TD50 runs as follows: (rat, strain Fischer 344/Jcl, females, by gavage, site: mammary gland, lesion: fibroadenoma, dosed 55 weeks, study length 104 weeks) 39.6 mg/kg/day; (rat, strain Fischer 344/Jcl, females, by gavage, site: mammary gland, lesion: several types, types named in the paper, dosed 55 weeks, study length 104 weeks) 3.33 mg/kg/day; (rat, strain Fischer 344/Jcl, females, by gavage, site: uterus, lesion: endometrial stromal polyp, dosed 55 weeks, study length 104 weeks) 13.1 mg/kg/day.
For `ClC/C=C/CCl`, the TD50 (mouse, strain Ha/ICR, females, i.p., site: abdomen, lesion: sarcoma, dosed 76 weeks, study length 76 weeks) was 1.52 mg/kg/day.
Regarding `N[C@@H](CC(=O)O)C(=O)O`, the TD50 by setting is: (rat, strain F344/DuCrj, females, in drinking water, site: any site (literature study), lesion: several types, types named in the paper, dosed 100 weeks, study length 100 weeks) 8340 mg/kg/day (inactive); (rat, strain F344/DuCrj, males, in drinking water, site: any site (literature study), lesion: several types, types named in the paper, dosed 100 weeks, study length 100 weeks) 2720 mg/kg/day (inactive). Moreover, the carcinogen call runs as follows: (rat, strain F344/DuCrj, females, in drinking water, site: liver, lesion: one or several types, types not named, dosed 100 weeks, study length 100 weeks) “negative (inactive)”; (rat, strain F344/DuCrj, males, in drinking water, site: liver, lesion: one or several types, types not named, dosed 100 weeks, study length 100 weeks) “negative (inactive)”.
For `CCCCCCCCCCN(C)N=O`, the carcinogen call (rat, strain Fischer 344, males, by gavage, site: any site (literature study), lesion: several types, types named in the paper, dosed 30 weeks, study length 102 weeks) is “positive”. Besides, the TD50 reads like this: (rat, strain Fischer 344, males, by gavage, site: forestomach, lesion: carcinoma, dosed 30 weeks, study length 102 weeks) 46.6 mg/kg/day; (rat, strain Fischer 344, males, by gavage, site: forestomach, lesion: papilloma, dosed 30 weeks, study length 102 weeks) 46.6 mg/kg/day; (rat, strain Fischer 344, males, by gavage, site: liver, lesion: hepatocellular carcinoma, dosed 30 weeks, study length 102 weeks) 22.7 mg/kg/day; (rat, strain Fischer 344, males, by gavage, site: lung, lesion: adenocarcinoma, dosed 30 weeks, study length 102 weeks) 8.32 mg/kg/day; (rat, strain Fischer 344, males, by gavage, site: lung, lesion: adenoma, dosed 30 weeks, study length 102 weeks) 14.7 mg/kg/day; (rat, strain Fischer 344, males, by gavage, site: nasal cavity, lesion: several types, types named in the paper, dosed 30 weeks, study length 102 weeks) 46.6 mg/kg/day. Moreover, the TD50 (rat, strain Fischer 344, males, by gavage, site: urinary bladder, lesion: transitional-cell carcinoma, dosed 30 weeks, study length 102 weeks) was 1.26 mg/kg/day.
